We go through 1 molecule from paper PMC11352859, “Functionalized Congeners of 2H-Chromene P2Y6 Receptor Antagonists” (Cells, 2024).

The term Ki denotes the dissociation constant of the complex between target and ligand, obtained from inhibition or displacement. As usually defined, the IC50 is the concentration needed to halve the response being measured.

The target in one assay is T1, 5-HT1A (Homo sapiens, UniProt P08908).
T1 construct: NIMH Psychoactive Drug Screening Program (PDSP)
The experiment in a line: PDSP binding assay, 5-HT1A. The following applies: Table S2, single determination. The source says:
(§1) Table S2. Off-target screening (to replace table later). We thank Dr. Bryan L. Roth (Univ. North Carolina at Chapel Hill) and National Institute of Mental Health's Psychoactive Drug Screening Program (Contract # HHSN-271-2008-00025-C) for screening data. Reference: Besnard et al.
(§2) Procedures: https://pdsp.unc.edu/pdspweb/content/UNC-CH%20Protocol%20Book.pdf […]
(§3) nucleosides were found at the following sites (human unless noted): 5HT1A, 5HT1B, 5HT1D, […]
(§4) β3, BZP rat brain site, D1, D2, D3, D4, D5, GABAA, H1, H2, H3, H4, M1, M2, M5, δ-opioid receptor (DOR), κ-opioid receptor (KOR), μ-opioid receptor (MOR), σ1, σ2, DAT, NET, SERT. Ki values […]
(§5) Compound # PDSP # Receptor LogKi Ki (nM)

The next assay addresses T2, hP2Y6R (Homo sapiens, UniProt Q15077).
T2 construct: expressed in transfected cells
The experiment in a line: UDP (100 nM)-induced Ca2+ mobilization in hP2Y6R stably transfected 1321N1 astrocytoma cells. In kind it is cell-based. The method, then: To screen for P2Y6R antagonist activity, PLC-mediated calcium mobilization assays were carried out using the recombinant human P2Y6R stably expressed in 1321N1 astrocytoma cells (hP2Y6R-1321N1) according to the previously published method. Briefly, the hP2Y6R-1321N1 cells were seeded on 96-well black plates and incubated overnight. The antagonists were pretreated along with the FLIPR dye (Calcium 6 assay kit, Molecular Devices, San Jose, CA, USA) containing 5 mM probenecid for 45 min, prior to agonist addition followed by an immediate intracellular Ca^2+ measurement. […] Here, probenecid was used as an organic anion transporter inhibitor to prevent the efflux of the dye into the extracellular environment. During incubation, the membrane permeable dye enters the cytoplasm and cleaves the acetoxymethyl protection to enable Ca^2+ binding. When the P2Y6R was activated by UDP, the increased calcium concentration was directly measured by intracellular changes in the fluorescence intensity with a Fluorescent Imaging Plate Reader (FLIPR^TETRA, Molecular Devices, San Jose, CA, USA).

Another assay deals with T3, H1 (Homo sapiens, UniProt P35367).
T3 construct: NIMH Psychoactive Drug Screening Program (PDSP)
T3 sequence (P35367 whole entry): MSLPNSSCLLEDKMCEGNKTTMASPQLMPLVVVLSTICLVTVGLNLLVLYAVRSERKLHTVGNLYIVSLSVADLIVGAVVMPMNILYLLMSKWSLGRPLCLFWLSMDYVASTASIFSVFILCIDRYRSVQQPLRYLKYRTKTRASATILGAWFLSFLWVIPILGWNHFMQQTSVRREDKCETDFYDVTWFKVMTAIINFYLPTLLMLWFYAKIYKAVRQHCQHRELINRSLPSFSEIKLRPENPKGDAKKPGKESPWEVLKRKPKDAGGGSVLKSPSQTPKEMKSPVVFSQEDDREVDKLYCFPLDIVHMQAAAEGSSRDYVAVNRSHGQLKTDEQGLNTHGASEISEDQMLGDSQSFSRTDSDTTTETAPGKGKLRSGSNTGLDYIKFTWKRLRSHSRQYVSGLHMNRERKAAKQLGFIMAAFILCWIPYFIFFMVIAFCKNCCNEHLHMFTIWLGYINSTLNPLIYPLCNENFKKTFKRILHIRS
The experiment in a line: PDSP binding assay, H1. The following applies: Table S2, single determinations; read-out: Ki (nM), H1.
Description: as §1, §2, §3, §4, §5

Several values for one entry are separate records, joined by “and”; a condition that tells them apart may be missing. Equal entries are not always repeated. Where only a bound is given, the exact number is not on record here.

T2 sequence (Q15077 whole entry): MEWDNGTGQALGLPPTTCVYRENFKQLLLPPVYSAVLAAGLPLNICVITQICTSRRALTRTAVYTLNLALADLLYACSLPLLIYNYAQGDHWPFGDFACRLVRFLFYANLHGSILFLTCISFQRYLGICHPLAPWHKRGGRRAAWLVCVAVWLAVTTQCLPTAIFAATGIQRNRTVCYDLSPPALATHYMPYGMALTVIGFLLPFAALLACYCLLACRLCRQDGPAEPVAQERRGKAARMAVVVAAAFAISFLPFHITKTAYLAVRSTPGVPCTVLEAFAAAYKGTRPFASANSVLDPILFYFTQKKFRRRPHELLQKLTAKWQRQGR
T1 sequence (P08908 whole entry): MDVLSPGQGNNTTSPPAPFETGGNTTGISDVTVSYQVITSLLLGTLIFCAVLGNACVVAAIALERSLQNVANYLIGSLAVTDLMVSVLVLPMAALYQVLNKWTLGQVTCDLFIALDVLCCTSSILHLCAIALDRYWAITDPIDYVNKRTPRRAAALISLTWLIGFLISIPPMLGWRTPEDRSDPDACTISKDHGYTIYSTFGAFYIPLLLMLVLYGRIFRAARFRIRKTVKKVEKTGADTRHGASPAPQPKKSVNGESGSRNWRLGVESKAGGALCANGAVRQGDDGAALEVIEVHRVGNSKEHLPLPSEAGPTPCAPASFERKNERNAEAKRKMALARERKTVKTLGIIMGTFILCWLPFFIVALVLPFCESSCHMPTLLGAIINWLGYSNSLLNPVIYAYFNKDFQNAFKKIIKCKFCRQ

Take `CC(C)(C)OC(=O)NCCCCCCCC#Cc1ccc2c(c1)C=C([N+](=O)[O-])C(C(F)(F)F)O2` (stereo not shown) [Compound 30, tert-Butyl (9-(3-nitro-2-(trifluoromethyl)-2H-chromen-6-yl)non-8-yn-1-yl)carbamate]: the Ki at 5-HT1A is > 10000 nM; at H1, 630 nM and 366 nM. Also, the IC50 at hP2Y6R (UDP 100 nM, 3–4 independent triplicate determinations, read-out: IC50, hP2Y6R (Mean ± SEM)) was determined as 0.162 ± 0.013 µM. The “fold greater affinity than the corresponding pivaloyl derivative” value on hP2Y6R (hP2Y6R IC50 ratio) was 107 fold.
